Assay results published in ChEMBL document CHEMBL4483862, “Open-source discovery of chemical leads for next-generation chemoprotective antimalarials” (2018).

Tested on: Plasmodium berghei
Assay: Luciferase/luciferin-expressing antifolate-resistant parasites were used to infect a culture of HepG2 cells that were pre-incubated with compounds. Infected hepatocytes emit light due to the luciferase reaction. Assay results are presented as the percent inhibition of light emission compared to control. […]
Format: functional
Settings: sporozoite; for IC90: read-out: LUCIFERASE INFECTION ASSAY - IC90
[1] = read-out: LUCIFERASE INFECTION ASSAY - IC50

SMILES | IC90 | IC50 [1] | further results
O=C(Nc1cc(C(F)(F)F)cc(C(F)(F)F)c1)Nc1sccc1Cl | 2.93 µM | – | IC50 (HEPG2TOX_HILL_SLOPE 3.73, HEPG2TOX_R_SQUARED 0.682, PBLUC_HILL_SLOPE 3.61, PBLUC_R_SQUARED 0.656, read-out: LUCIFERASE INFECTION ASSAY - IC50): 1.59 µM
CCOC(=O)c1sc(N)c(C#N)c1COC(=O)C1(c2cccc(F)c2)CCCC1 | 8.29 µM | – | IC50 (HEPG2TOX_HILL_SLOPE 2.42, HEPG2TOX_R_SQUARED 0.924, PBLUC_HILL_SLOPE 2.7, PBLUC_R_SQUARED 0.388, read-out: LUCIFERASE INFECTION ASSAY - IC50): 3.67 µM
Cn1c(N)c(C(=O)COC(=O)C2(c3ccc(Cl)cc3)CCCC2)c(=O)n(C)c1=O | 6.91 µM | – | IC50 (PBLUC_HILL_SLOPE 2.17, PBLUC_R_SQUARED 0.685, read-out: LUCIFERASE INFECTION ASSAY - IC50): 2.5 µM
O=C(NCCC1=CCCCC1)c1cc2ccccc2c(=O)[nH]1 | > 10 µM | – | IC50 (HEPG2TOX_HILL_SLOPE 1.23, HEPG2TOX_R_SQUARED 0.699, PBLUC_HILL_SLOPE 12.6, PBLUC_R_SQUARED 0.339, read-out: LUCIFERASE INFECTION ASSAY - IC50): 9.57 µM
CSc1sc(-c2ccn(S(=O)(=O)c3ccc(Cl)c(Cl)c3)n2)c2c1C(=O)CC(C)(C)C2 | > 6.58 µM | > 6.58 µM | –
Cc1onc(-c2ccccc2)c1C(=O)ON=C1C2CC3CC(C2)CC1C3 | > 9.42 µM | – | IC50 (PBLUC_HILL_SLOPE 14.9, PBLUC_R_SQUARED 0.433, read-out: LUCIFERASE INFECTION ASSAY - IC50): 8.78 µM
NNc1nn2c(=O)c3c(-c4ccccc4)csc3nc2c2ccccc12 | > 10 µM | – | IC50 (FFLUC_HILL_SLOPE 12, FFLUC_R_SQUARED 0.305, PBLUC_HILL_SLOPE 10.1, PBLUC_R_SQUARED 0.389, read-out: LUCIFERASE INFECTION ASSAY - IC50): 8.61 µM
Cn1c(SCC(=O)c2ccc(Cl)cc2)nnc1-c1ccc(C(C)(C)C)cc1 | > 8.25 µM | – | IC50 (PBLUC_HILL_SLOPE 11.7, PBLUC_R_SQUARED 0.0355, read-out: LUCIFERASE INFECTION ASSAY - IC50): > 8.25 µM
Cc1c(C)n(CCCO)c2ncn3nc(-c4ccc(Cl)cc4)nc3c12 | > 9.27 µM | > 9.27 µM | –
CS(=O)(=O)c1nc2ccccc2n1Cc1cc(=O)n2ccccc2n1 | > 10 µM | – | IC50 (PBLUC_HILL_SLOPE 1.24, PBLUC_R_SQUARED 0.679, read-out: LUCIFERASE INFECTION ASSAY - IC50): 5.51 µM
Cc1cccc(-c2nn(-c3ccccc3)cc2/C=C/C(=O)c2c(C)[nH]c(=O)[nH]c2=O)c1 | > 10 µM | – | IC50 (PBLUC_HILL_SLOPE 3.1, PBLUC_R_SQUARED 0.412, read-out: LUCIFERASE INFECTION ASSAY - IC50): 5.95 µM
CC(C)Cn1c(N)c(C(=O)CSc2nc(=O)c3c4c(sc3[nH]2)CCCC4)c(=O)n(C)c1=O | > 10 µM | – | IC50 (HEPG2TOX_HILL_SLOPE 0.911, HEPG2TOX_R_SQUARED 0.885, PBLUC_HILL_SLOPE 2, PBLUC_R_SQUARED 0.249, read-out: LUCIFERASE INFECTION ASSAY - IC50): 5.58 µM
O=C(Nc1ccc(OC(F)(F)F)cc1)N1CCc2nc(Nc3cc(Cl)cc(Cl)c3)ncc2C1 | > 6.62 µM | > 6.62 µM | –
Cn1c(SCC#N)nnc1-c1ccc(C(C)(C)C)cc1 | 1.34 µM | – | IC50 (PBLUC_HILL_SLOPE 23.6, PBLUC_R_SQUARED 0.364, read-out: LUCIFERASE INFECTION ASSAY - IC50): 1.22 µM
NS(=O)(=O)c1ccc(S(=O)(=O)N2CCCN(Cc3ccc(C(F)(F)F)cc3)CC2)cc1 | > 10 µM | – | IC50 (HEPG2TOX_HILL_SLOPE 4.06, HEPG2TOX_R_SQUARED 0.95, PBLUC_HILL_SLOPE 2.74, PBLUC_R_SQUARED 0.121, read-out: LUCIFERASE INFECTION ASSAY - IC50): 6.92 µM
CC1(C(=O)NCCC(F)(F)F)Cc2c(-c3ccc4c(c3)OCO4)ccnc2O1 (stereo unspecified) | 6.15 µM | – | IC50 (FFLUC_HILL_SLOPE 14.8, FFLUC_R_SQUARED 0.74, HEPG2TOX_HILL_SLOPE 2.73, HEPG2TOX_R_SQUARED 0.858, PBLUC_HILL_SLOPE 3.16, PBLUC_R_SQUARED 0.521, read-out: LUCIFERASE INFECTION ASSAY - IC50): 3.07 µM
Cc1nn(-c2ccc(Cl)cc2)c2sc(C(=O)NCC3(N(C)C)CCCCC3)cc12 | 5.31 µM | – | IC50 (HEPG2TOX_HILL_SLOPE 22.9, HEPG2TOX_R_SQUARED 0.594, PBLUC_HILL_SLOPE 11.3, PBLUC_R_SQUARED 0.837, read-out: LUCIFERASE INFECTION ASSAY - IC50): 4.37 µM
COc1ccc(N(CCC(N)=O)C(=O)CSc2nc3ccccc3n2-c2ccc(OC)cc2)cc1 | > 10 µM | – | IC50 (FFLUC_HILL_SLOPE 0.23, FFLUC_R_SQUARED 0.0771, read-out: LUCIFERASE INFECTION ASSAY - IC50): > 10 µM
COc1ccc(CCn2nc(C(=O)NC3CC3)c3c2CCN(C(=O)c2cc(C)n[nH]2)C3)cc1 | 4.91 µM | – | IC50 (PBLUC_HILL_SLOPE 5.54, PBLUC_R_SQUARED 0.701, read-out: LUCIFERASE INFECTION ASSAY - IC50): 3.31 µM
Cc1cccc(Cn2nc(C(C)(C)C)cc2-c2nnc(SCc3ccccc3)n2C2CCCCC2)c1 | > 6.6 µM | > 6.6 µM | –
CC(C)(C)c1ccc(/C=C2\CCc3c2nc2ccccc2c3C(=O)OCC#N)cc1 | > 10 µM | > 10 µM | –
O=C(Nc1ccccc1)OCc1cccnc1Sc1ccc(Cl)cc1 | > 8.9 µM | > 8.9 µM | –

SMILES | IC90 | IC50 [1] | further results
O=C(Nc1nc2ccccc2[nH]1)C1CCN(c2ncc(C(F)(F)F)cc2Cl)CC1 | 3.95 µM | – | IC50 (PBLUC_HILL_SLOPE 12.1, PBLUC_R_SQUARED 0.351, read-out: LUCIFERASE INFECTION ASSAY - IC50): 3.29 µM
CC1(C)CC(=O)C=C(SCC(=O)Nc2cccc(C(F)(F)F)c2)S1 | > 8.79 µM | > 8.79 µM | –
CNc1snc(C)c1C(=O)Nc1ccc2oc(C(C)C)nc2c1 | 3.56 µM | – | IC50 (PBLUC_HILL_SLOPE 15, PBLUC_R_SQUARED 0.678, read-out: LUCIFERASE INFECTION ASSAY - IC50): 3.08 µM
CC(C)c1ccc(CN2CCC2(C)C(=O)Nc2cnc3ccccc3c2)cc1 (stereo unspecified) | 3.79 µM | – | IC50 (PBLUC_HILL_SLOPE 15.4, PBLUC_R_SQUARED 0.671, read-out: LUCIFERASE INFECTION ASSAY - IC50): 3.29 µM
O=C(COC(=O)c1ccccc1NCCO)NC(=O)NCc1ccco1 | > 10 µM | > 10 µM | –
CCN(CC(=O)NC(C)(C)C)C(=O)c1cc(OC)c(Br)c(OC)c1 | > 10 µM | > 10 µM | –
COc1cc(-c2cc(-c3ccc(F)c(Cl)c3)cnc2N)ccc1O | > 9.57 µM | – | IC50 (PBLUC_HILL_SLOPE 11.9, PBLUC_R_SQUARED 0.433, read-out: LUCIFERASE INFECTION ASSAY - IC50): 8.61 µM
O=C1/C(=C\c2ccccn2)N(Cc2ccccc2)S(=O)(=O)c2ccccc21 | 5.19 µM | 2.87 µM | –
c1ccc(-c2cn3ccnc3c(NCc3ccncc3)n2)cc1 | 4.49 µM | – | IC50 (HEPG2TOX_HILL_SLOPE 2.19, HEPG2TOX_R_SQUARED 0.99, PBLUC_HILL_SLOPE 12.4, PBLUC_R_SQUARED 0.482, read-out: LUCIFERASE INFECTION ASSAY - IC50): 3.76 µM
COc1ccccc1Oc1ccc(NC(C)C(=O)N2CCCC2)cc1 (stereo unspecified) | > 10 µM | – | IC50 (PBLUC_HILL_SLOPE 21.7, PBLUC_R_SQUARED 0.137, read-out: LUCIFERASE INFECTION ASSAY - IC50): 9.85 µM
CN(c1ccccc1)S(=O)(=O)c1cc(C(=O)c2nnc(-c3ccc(Cl)cc3)o2)ccc1Cl | > 10 µM | > 10 µM | –
CCOc1cc(/C=C2\CN(CC)C/C(=C\c3ccc(O)c(OCC)c3)C2=O)ccc1O | 4.59 µM | – | IC50 (HEPG2TOX_HILL_SLOPE 12.4, HEPG2TOX_R_SQUARED 0.875, PBLUC_HILL_SLOPE 8.96, PBLUC_R_SQUARED 0.775, read-out: LUCIFERASE INFECTION ASSAY - IC50): 3.59 µM
COc1ccc(C(NC(=O)c2ccc(-n3cccc3)cc2)c2nccn2C)cc1 (stereo unspecified) | > 10 µM | > 10 µM | –
CC1CCC/C(=C(/C#N)c2nc(-c3ccccc3O)cs2)C1 (stereo unspecified) | 5.31 µM | – | IC50 (HEPG2TOX_HILL_SLOPE 34.1, 11.7, HEPG2TOX_R_SQUARED 0.352, 0.945, PBLUC_HILL_SLOPE 13.4, PBLUC_R_SQUARED 0.235, read-out: LUCIFERASE INFECTION ASSAY - IC50): 4.51 µM
CN(Cc1ccc(Br)s1)c1ncccc1C(N)=O | > 2 µM | > 2 µM | –
CC(C)Oc1cccc(Nc2nccc3[nH]c(-c4cccc(F)c4)cc23)c1 | > 10 µM | 1.49 µM | –
O=C(Nc1sc2c(c1-c1nc3ccccc3[nH]1)CCCC2)c1nc(-c2ccccc2)n(-c2ccccc2)n1 | > 10 µM | 9.63 µM | –
CCCNC(=O)COc1ccc(Nc2ccccc2)cc1 | > 10 µM | > 10 µM | –
CC(C)OCc1cccc(NC(=O)Nc2cccc(Cl)c2)c1 | 1.8 µM | – | IC50 (HEPG2TOX_HILL_SLOPE 8.19, HEPG2TOX_R_SQUARED 0.0219, PBLUC_HILL_SLOPE 262, PBLUC_R_SQUARED 0.512, read-out: LUCIFERASE INFECTION ASSAY - IC50): 1.78 µM
CCOc1cc2ccccc2cc1C(=O)NNC(=O)c1ccccn1 | 1.23 µM | – | IC50 (HEPG2TOX_HILL_SLOPE 1.13, 0.817, HEPG2TOX_R_SQUARED 0.858, 0.909, PBLUC_HILL_SLOPE 4.86, PBLUC_R_SQUARED 0.852, read-out: LUCIFERASE INFECTION ASSAY - IC50): 0.78 µM
CC(NC(=O)c1ccccc1NC(=O)CN1CCN(C/C=C/c2ccccc2)CC1)c1ccccc1 (stereo unspecified) | 8.52 µM | – | IC50 (PBLUC_HILL_SLOPE 3.6, PBLUC_R_SQUARED 0.261, read-out: LUCIFERASE INFECTION ASSAY - IC50): 4.62 µM
